# Experimental data from the supplement of paper PMC10307832.
# Columns and labels:
# Experiment in all cases: relative viability (nuclei count vs DMSO), 5 days (fraction); higher = more cells survive
# [1] = compound: C1CC1C(=O)NC2=NNC3=C2C=CC(=C3)C4=CC(=CC=C4)C(=O)NC5CC5 [XMD13-2] + Nc1ncn([C@H]2C[C@H](O)[C@@H](CO)O2)c(=O)n1 [Decitabine] (partner 2 µM)
# Outline: (§1)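 Lung cancer cell lines were pin-tool dosed in 1536-well plates on the day after seeding, with either a lone drug or a fixed anchor-drug dose plus five library-drug doses (not always all listed) in √10 steps. Nuclei were counted on 4× images after 5 days. Relative viability is the ratio of treated-well to vehicle-well nuclei counts, with each value a median of duplicate plates.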
# [2] = compound: Cc1ccc(C(=O)Nc2cccc(C(F)(F)F)c2)cc1Nc1cncc(C(N)=O)c1 [ALW-II-49-7] + CC1(C)CCC(c2ccc(Cl)cc2)=C(CN2CCN(c3ccc(C(=O)NS(=O)(=O)c4ccc(N[C@H](CCN5CCOCC5)CSc5ccccc5)c(S(=O)(=O)C(F)(F)F)c4)cc3)CC2)C1 [Navitoclax] (partner 0.5 µM)
# Outline: as §1
# [3] = compound: Cc1ccc(C(=O)Nc2cccc(C(F)(F)F)c2)cc1Nc1cncc(C(N)=O)c1 [ALW-II-49-7] + COc1cc2c(Oc3ccc(NC(=O)C4(C(=O)Nc5ccc(F)cc5)CC4)cc3F)ccnc2cc1OCCCN1CCOCC1 [Foretinib] (partner 0.25 µM)
# Outline: as §1
# [4] = compound: Cc1nc(Nc2ncc(C(=O)Nc3c(C)cccc3Cl)s2)cc(N2CCN(CCO)CC2)n1 [Dasatinib] + COc1cc2c(Oc3ccc(NC(=O)C4(C(=O)Nc5ccc(F)cc5)CC4)cc3F)ccnc2cc1OCCCN1CCOCC1 [Foretinib] (partner 0.25 µM)
# Outline: as §1
cell line,measurement,setting,value
NCI-H2023,relative viability,[1]; first compound 0.05 µM,0.255
same,relative viability,[1]; first compound 0.1581 µM,0.214
same,relative viability,[1]; first compound 0.5 µM,0.215
same,relative viability,[1]; first compound 1.581 µM,0.22
same,relative viability,[1]; first compound 5 µM,0.195
same,relative viability,[2]; first compound 0.08 µM,0.925
same,relative viability,[2]; first compound 0.253 µM,1.1
same,relative viability,[2]; first compound 0.8 µM,1.03
same,relative viability,[2]; first compound 2.53 µM,1.01
same,relative viability,[2]; first compound 8 µM,1.02
same,relative viability,[3]; first compound 0.08 µM,0.841
same,relative viability,[3]; first compound 0.253 µM,1.02
same,relative viability,[3]; first compound 0.8 µM,0.966
same,relative viability,[3]; first compound 2.53 µM,1.02
same,relative viability,[3]; first compound 8 µM,1.09
same,relative viability,[4]; first compound 0.005 µM,0.642
same,relative viability,[4]; first compound 0.01581 µM,0.749
same,relative viability,[4]; first compound 0.05 µM,0.434
same,relative viability,[4]; first compound 0.1581 µM,0.377
same,relative viability,[4]; first compound 0.5 µM,0.297
EBC-1,relative viability,[2]; first compound 0.08 µM,0.403
same,relative viability,[2]; first compound 0.253 µM,0.377
same,relative viability,[2]; first compound 0.8 µM,0.348
same,relative viability,[2]; first compound 2.53 µM,0.321
same,relative viability,[2]; first compound 8 µM,0.277
same,relative viability,[3]; first compound 0.08 µM,0.0976
same,relative viability,[3]; first compound 0.253 µM,0.11
same,relative viability,[3]; first compound 0.8 µM,0.098
same,relative viability,[3]; first compound 2.53 µM,0.0988
same,relative viability,[3]; first compound 8 µM,0.114
same,relative viability,[4]; first compound 0.005 µM,0.106
same,relative viability,[4]; first compound 0.05 µM,0.0991
same,relative viability,[4]; first compound 0.1581 µM,0.121
same,relative viability,[4]; first compound 0.5 µM,0.0976
NCI-H1666,relative viability,[1]; first compound 0.05 µM,0.738
same,relative viability,[1]; first compound 0.1581 µM,0.734
same,relative viability,[1]; first compound 0.5 µM,0.689
same,relative viability,[1]; first compound 1.581 µM,0.666
same,relative viability,[1]; first compound 5 µM,0.735
same,relative viability,[2]; first compound 0.08 µM,0.879
same,relative viability,[2]; first compound 0.253 µM,1.03
same,relative viability,[2]; first compound 0.8 µM,1.03
same,relative viability,[2]; first compound 2.53 µM,0.978
same,relative viability,[2]; first compound 8 µM,1
same,relative viability,[3]; first compound 0.08 µM,0.954
same,relative viability,[3]; first compound 0.253 µM,0.887
same,relative viability,[3]; first compound 0.8 µM,0.964
same,relative viability,[3]; first compound 2.53 µM,1.05
same,relative viability,[3]; first compound 8 µM,1.05
same,relative viability,[4]; first compound 0.005 µM,1.12
same,relative viability,[4]; first compound 0.01581 µM,0.989
same,relative viability,[4]; first compound 0.05 µM,1.07
same,relative viability,[4]; first compound 0.1581 µM,0.862
same,relative viability,[4]; first compound 0.5 µM,0.425
NCI-H1975,relative viability,[1]; first compound 0.05 µM,0.373
same,relative viability,[1]; first compound 0.1581 µM,0.381
same,relative viability,[1]; first compound 0.5 µM,0.412
same,relative viability,[1]; first compound 1.581 µM,0.414
same,relative viability,[1]; first compound 5 µM,0.333
same,relative viability,[2]; first compound 0.08 µM,1.06
same,relative viability,[2]; first compound 0.253 µM,1.05
same,relative viability,[2]; first compound 0.8 µM,0.993
same,relative viability,[2]; first compound 2.53 µM,0.919
same,relative viability,[2]; first compound 8 µM,0.998
same,relative viability,[3]; first compound 0.08 µM,0.918
same,relative viability,[3]; first compound 0.253 µM,1.05
same,relative viability,[3]; first compound 0.8 µM,1
same,relative viability,[3]; first compound 2.53 µM,0.909
same,relative viability,[3]; first compound 8 µM,0.891
same,relative viability,[4]; first compound 0.005 µM,0.918
same,relative viability,[4]; first compound 0.01581 µM,0.817
same,relative viability,[4]; first compound 0.05 µM,0.722
same,relative viability,[4]; first compound 0.1581 µM,0.439
same,relative viability,[4]; first compound 0.5 µM,0.225
